Each block holds one compound with its values, some of them ahead of it. The source made the active and inactive calls. The calls are words filed in the database; no cut-off is given here.
What was measured:
[1] = biological target: T1, Serine/threonine-protein kinase Chk1 (Homo sapiens, UniProt O14757); assay: Inhibition of human CHK1 expressed in baculovirus/insect cell system
T1 sequence (O14757 whole entry): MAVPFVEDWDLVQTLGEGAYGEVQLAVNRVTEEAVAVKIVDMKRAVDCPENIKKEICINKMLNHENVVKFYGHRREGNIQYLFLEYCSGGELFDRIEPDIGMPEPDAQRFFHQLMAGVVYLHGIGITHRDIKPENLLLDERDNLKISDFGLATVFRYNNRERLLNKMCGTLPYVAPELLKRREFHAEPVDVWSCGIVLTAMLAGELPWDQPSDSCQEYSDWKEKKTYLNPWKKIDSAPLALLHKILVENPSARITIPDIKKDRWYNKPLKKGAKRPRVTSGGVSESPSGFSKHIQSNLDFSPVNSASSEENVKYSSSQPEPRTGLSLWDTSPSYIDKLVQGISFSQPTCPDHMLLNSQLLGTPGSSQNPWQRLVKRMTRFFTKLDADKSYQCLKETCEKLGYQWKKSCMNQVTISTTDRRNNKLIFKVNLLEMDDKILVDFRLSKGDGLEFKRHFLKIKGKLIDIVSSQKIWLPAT

[2] = biological target: T1, Serine/threonine-protein kinase Chk1; assay: Activity at human CHK1 in CA46 cells by histone H3 ELISA assay; format: cell-based
[3] = biological target: Protein kinase C zeta type (Homo sapiens) (UniProt Q05513); assay: Inhibition of PKCzeta at 1 uM
[4] = biological target: Serine/threonine-protein kinase Chk2 (Homo sapiens) (UniProt O96017); assay: Inhibition of human CHK2 expressed in Escherichia coli at 1 uM
Chain of Serine/threonine-protein kinase Chk2 (Homo sapiens) (O96017 whole entry): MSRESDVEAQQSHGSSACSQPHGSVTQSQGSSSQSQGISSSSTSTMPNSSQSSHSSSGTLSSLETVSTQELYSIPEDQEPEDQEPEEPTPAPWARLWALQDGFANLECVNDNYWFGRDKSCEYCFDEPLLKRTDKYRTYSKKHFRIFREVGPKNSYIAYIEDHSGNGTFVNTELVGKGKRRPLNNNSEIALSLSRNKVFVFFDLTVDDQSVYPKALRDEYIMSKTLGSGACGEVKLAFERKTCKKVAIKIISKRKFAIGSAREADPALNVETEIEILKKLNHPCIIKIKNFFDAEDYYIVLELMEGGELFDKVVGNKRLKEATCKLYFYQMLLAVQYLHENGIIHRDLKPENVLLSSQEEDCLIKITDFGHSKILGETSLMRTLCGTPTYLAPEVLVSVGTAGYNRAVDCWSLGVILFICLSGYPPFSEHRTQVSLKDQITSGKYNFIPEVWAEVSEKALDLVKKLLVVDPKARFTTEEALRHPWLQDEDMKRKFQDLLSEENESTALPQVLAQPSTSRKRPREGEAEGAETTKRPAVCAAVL

[5] = biological target: Protein kinase C beta type (Homo sapiens) (UniProt P05771); assay: Inhibition of PKCbeta at 1 uM
[6] = biological target: Cyclin-dependent kinase 2 (Homo sapiens) (UniProt P24941); assay: Inhibition of CDK2 at 1 uM
[7] = biological target: Proto-oncogene tyrosine-protein kinase Src (Homo sapiens) (UniProt P12931); assay: Inhibition of SRC at 1 uM
Chain of Proto-oncogene tyrosine-protein kinase Src (Homo sapiens) (P12931 2-536 limits assumed): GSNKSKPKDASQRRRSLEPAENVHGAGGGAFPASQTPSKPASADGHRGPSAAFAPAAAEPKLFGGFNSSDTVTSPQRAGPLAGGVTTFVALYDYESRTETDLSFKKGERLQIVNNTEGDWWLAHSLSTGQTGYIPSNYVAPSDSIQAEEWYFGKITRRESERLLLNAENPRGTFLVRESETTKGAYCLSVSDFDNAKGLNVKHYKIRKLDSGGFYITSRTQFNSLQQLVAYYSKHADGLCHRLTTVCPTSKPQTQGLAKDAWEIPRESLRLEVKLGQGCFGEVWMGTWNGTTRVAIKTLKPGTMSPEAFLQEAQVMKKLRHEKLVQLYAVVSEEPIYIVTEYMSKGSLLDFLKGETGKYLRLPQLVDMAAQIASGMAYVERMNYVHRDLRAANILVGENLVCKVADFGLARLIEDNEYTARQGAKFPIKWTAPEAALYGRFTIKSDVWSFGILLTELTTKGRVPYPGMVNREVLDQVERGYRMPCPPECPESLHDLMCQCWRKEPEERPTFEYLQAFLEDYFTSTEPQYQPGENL

[8] = biological target: MAP kinase-activated protein kinase 2 (Mus musculus) (UniProt P49138); assay: Inhibition of mouse MAPKAP2 at 1 uM
Chain of MAP kinase-activated protein kinase 2 (Mus musculus) (P49138 whole entry): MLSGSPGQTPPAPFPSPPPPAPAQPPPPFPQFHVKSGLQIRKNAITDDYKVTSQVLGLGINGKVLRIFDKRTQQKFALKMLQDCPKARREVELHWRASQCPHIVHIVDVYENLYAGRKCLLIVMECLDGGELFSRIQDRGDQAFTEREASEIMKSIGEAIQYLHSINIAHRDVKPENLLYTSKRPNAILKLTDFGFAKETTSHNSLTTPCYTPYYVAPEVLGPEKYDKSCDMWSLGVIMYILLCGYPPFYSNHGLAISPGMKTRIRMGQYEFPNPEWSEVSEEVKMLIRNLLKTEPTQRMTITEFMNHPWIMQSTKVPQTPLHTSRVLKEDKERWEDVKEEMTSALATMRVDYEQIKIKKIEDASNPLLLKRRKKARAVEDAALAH

[9] = biological target: Mitogen-activated protein kinase 1 (Homo sapiens) (UniProt P28482); assay: Inhibition of ERK2 at 1 uM
Chain of Mitogen-activated protein kinase 1 (Homo sapiens) (P28482 whole entry): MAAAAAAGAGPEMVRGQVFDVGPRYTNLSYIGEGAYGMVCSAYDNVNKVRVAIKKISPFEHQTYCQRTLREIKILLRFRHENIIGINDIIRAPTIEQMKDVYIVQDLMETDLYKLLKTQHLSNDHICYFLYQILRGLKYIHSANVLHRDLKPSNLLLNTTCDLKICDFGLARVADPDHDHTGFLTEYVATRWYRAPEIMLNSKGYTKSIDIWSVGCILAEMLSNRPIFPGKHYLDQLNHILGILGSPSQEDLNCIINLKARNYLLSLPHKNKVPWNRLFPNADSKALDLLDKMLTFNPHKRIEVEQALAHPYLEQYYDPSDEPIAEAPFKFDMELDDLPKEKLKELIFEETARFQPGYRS

[10] = biological target: T2, RAC-alpha serine/threonine-protein kinase (Homo sapiens, UniProt P31749); assay: Inhibition of AKT1 at 1 uM
T2 sequence (P31749 whole entry): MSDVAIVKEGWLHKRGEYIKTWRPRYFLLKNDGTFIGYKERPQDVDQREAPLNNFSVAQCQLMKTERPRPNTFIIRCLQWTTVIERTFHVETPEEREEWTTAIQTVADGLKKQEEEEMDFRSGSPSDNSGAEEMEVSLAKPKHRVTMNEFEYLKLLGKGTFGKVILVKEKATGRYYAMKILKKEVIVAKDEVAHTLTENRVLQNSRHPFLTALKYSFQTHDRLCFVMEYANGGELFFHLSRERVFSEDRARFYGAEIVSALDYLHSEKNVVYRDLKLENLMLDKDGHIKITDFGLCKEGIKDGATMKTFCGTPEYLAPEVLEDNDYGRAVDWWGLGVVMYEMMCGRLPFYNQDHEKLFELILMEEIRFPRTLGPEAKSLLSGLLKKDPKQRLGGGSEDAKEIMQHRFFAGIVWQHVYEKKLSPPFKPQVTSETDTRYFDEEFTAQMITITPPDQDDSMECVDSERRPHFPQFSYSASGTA

[11] = biological target: Mitogen-activated protein kinase 1 (Homo sapiens) (UniProt P28482); assay: Inhibition of human MAPK1 at 1 uM
[12] = biological target: Protein kinase C alpha type (Homo sapiens) (UniProt P17252); assay: Inhibition of PKCalpha at 1 uM
[13] = biological target: Serine/threonine-protein kinase pim-2 (Homo sapiens, UniProt Q9P1W9); assay: Inhibition of PIM2
[14] = biological target: Dual specificity protein kinase CLK1 (Homo sapiens) (UniProt P49759); assay: Inhibition of CLK at 1 uM
Insulin receptor = Insulin receptor (Homo sapiens, UniProt P06213); assay: Inhibition of INSR
[15] = biological target: Serine/threonine-protein kinase PAK 4 (Homo sapiens, UniProt O96013); assay: Inhibition of PAK4
Chain of Serine/threonine-protein kinase PAK 4 (O96013 whole entry): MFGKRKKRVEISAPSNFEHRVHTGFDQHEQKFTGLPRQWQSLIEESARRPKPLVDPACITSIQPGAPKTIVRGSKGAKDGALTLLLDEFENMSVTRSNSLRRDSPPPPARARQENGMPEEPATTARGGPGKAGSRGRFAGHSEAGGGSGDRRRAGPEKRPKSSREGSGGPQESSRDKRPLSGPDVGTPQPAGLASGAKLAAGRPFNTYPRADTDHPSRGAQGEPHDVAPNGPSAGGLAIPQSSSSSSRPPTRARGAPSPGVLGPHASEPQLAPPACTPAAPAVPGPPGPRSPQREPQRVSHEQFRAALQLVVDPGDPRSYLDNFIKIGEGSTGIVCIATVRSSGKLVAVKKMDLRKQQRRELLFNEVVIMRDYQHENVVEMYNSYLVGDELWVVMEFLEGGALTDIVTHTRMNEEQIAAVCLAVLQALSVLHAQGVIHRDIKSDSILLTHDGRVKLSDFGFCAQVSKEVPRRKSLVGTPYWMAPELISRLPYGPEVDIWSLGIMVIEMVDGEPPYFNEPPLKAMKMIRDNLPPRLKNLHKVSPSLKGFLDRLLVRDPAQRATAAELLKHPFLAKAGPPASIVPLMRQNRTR

[16] = biological target: Tyrosine-protein kinase Lck (Homo sapiens, UniProt P06239); assay: Inhibition of human LCK
[17] = biological target: T2, RAC-alpha serine/threonine-protein kinase; assay: Inhibition of AKT1
[18] = Inhibition of human VEGFR expressed in baculovirus/insect cell system by FLVK-P assay
[19] = biological target: Rho-associated protein kinase 1 (Homo sapiens) (UniProt Q13464); assay: Inhibition of ROCK1 activity at 1 uM
[20] = biological target: Glycogen synthase kinase-3 beta (Homo sapiens) (UniProt P49841); assay: Inhibition of GSK3-beta at 1 uM
[21] = biological target: Inhibitor of nuclear factor kappa-B kinase subunit epsilon (Homo sapiens) (UniProt Q14164); assay: Inhibition of IKKi at 1 uM
Chain of Inhibitor of nuclear factor kappa-B kinase subunit epsilon (Homo sapiens) (Q14164 whole entry): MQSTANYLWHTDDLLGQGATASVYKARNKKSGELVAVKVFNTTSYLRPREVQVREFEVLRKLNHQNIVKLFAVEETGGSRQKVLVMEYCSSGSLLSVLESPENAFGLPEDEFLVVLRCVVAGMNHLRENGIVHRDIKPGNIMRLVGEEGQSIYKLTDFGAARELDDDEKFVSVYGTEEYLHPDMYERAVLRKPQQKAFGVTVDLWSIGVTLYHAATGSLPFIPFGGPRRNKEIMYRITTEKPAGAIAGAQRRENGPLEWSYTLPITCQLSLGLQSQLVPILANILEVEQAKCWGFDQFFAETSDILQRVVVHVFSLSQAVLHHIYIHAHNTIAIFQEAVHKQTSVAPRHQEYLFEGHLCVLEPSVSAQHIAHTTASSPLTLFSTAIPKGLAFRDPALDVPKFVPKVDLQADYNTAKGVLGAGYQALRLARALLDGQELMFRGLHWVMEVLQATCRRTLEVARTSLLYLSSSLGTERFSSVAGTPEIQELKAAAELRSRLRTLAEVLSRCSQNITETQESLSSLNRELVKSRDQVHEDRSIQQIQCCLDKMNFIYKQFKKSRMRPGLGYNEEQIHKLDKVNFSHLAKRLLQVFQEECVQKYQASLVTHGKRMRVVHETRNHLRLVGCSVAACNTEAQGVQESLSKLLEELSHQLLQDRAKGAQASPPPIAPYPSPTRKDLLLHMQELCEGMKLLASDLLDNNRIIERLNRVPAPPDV

[22] = biological target: Inhibitor of nuclear factor kappa-B kinase subunit beta (Homo sapiens) (UniProt O14920); assay: Inhibition of IKK-beta at 1 uM
[23] = biological target: Tyrosine-protein kinase ABL1 (Homo sapiens, UniProt P00519); assay: Inhibition of ABL
[24] = biological target: Calcium/calmodulin-dependent protein kinase type 1 (Homo sapiens, UniProt Q14012); assay: Inhibition of CAMK1
Chain of Calcium/calmodulin-dependent protein kinase type 1 (Q14012 whole entry): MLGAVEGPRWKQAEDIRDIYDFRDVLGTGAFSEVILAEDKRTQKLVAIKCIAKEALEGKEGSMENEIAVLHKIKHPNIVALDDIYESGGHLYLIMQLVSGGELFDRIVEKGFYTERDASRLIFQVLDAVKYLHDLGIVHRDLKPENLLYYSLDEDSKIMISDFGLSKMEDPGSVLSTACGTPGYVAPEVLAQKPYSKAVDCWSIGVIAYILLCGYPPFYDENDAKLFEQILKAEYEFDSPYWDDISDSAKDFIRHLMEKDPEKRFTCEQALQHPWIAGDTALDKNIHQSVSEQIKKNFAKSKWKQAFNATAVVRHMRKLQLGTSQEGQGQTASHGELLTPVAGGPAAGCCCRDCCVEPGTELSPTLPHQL

Aurora kinase A = Aurora kinase A (Homo sapiens, UniProt O14965); assay: Inhibition of Aurora A
[25] = biological target: Serine/threonine-protein kinase Sgk1 (Homo sapiens, UniProt O00141); assay: Inhibition of human SGK
[26] = Inhibition of bovine PKA
[27] = biological target: Serine/threonine-protein kinase Nek2 (Homo sapiens, UniProt P51955); assay: Inhibition of NEK2
[28] = biological target: Serine/threonine-protein kinase 26 (Homo sapiens, UniProt Q9P289); assay: Inhibition of MASK
Chain of Serine/threonine-protein kinase 26 (Q9P289 whole entry): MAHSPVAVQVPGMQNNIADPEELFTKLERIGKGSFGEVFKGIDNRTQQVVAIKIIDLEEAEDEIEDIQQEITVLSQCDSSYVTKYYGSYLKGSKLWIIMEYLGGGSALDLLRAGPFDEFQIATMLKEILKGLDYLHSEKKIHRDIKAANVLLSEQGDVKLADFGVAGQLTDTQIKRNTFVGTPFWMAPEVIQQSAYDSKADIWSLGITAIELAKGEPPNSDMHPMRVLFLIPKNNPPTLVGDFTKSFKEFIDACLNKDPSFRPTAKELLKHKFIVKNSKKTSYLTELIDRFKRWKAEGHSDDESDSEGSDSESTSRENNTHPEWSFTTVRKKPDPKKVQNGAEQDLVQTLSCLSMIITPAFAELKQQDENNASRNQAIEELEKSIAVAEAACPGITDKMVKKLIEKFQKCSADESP

[29] = biological target: Casein kinase II (Homo sapiens) (UniProt P67870+P68400+P19784); assay: Inhibition of CK2 at 1 uM; format: protein-complex assay
[30] = biological target: Cyclin-dependent kinase 1 (Homo sapiens, UniProt P06493); assay: Inhibition of CDK1 expressed in Sf21 cells
Chain of Cyclin-dependent kinase 1 (P06493 whole entry): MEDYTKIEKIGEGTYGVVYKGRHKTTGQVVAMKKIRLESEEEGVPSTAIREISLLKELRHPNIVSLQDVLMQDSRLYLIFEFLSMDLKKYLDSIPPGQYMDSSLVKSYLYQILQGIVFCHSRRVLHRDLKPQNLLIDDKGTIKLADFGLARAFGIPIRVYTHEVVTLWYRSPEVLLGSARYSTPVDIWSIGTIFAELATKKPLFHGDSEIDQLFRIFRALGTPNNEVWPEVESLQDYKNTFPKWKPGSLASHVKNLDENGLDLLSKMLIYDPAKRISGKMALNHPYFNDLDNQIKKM

[31] = biological target: 3-phosphoinositide-dependent protein kinase 1 (Homo sapiens) (UniProt O15530); assay: Inhibition of human PDK1 at 1 uM
[32] = biological target: Serine/threonine-protein kinase Chk1 (Homo sapiens) (UniProt O14757); assay: Activity at human CHK1 in CA46 cells by histone H3 ELISA assay at 1.0 uM; format: cell-based
[33] = biological target: Serine/threonine-protein kinase Chk1 (Homo sapiens) (UniProt O14757); assay: Activity at human CHK1 in CA46 cells by histone H3 ELISA assay at 10 uM; format: cell-based
MDA-MB-231 = assay: Cell cycle arrest in MDA-MB-231 cells assessed as accumulation at S phase by FACS analysis; format: functional, cell-based; details: Homo sapiens

Ki [1]: 0.19 nM | EC50 [2]: 58 nM
Structure (SMILES): CN(C)Cc1ccc(Nc2cc(-c3ccc(-c4ccc(O)cc4O)cc3)[nH]n2)cc1

Ki [1]: 0.2 nM | EC50 [2]: 230 nM
Structure (SMILES): CCC(C)NCc1ccc(Nc2cc(-c3ccc(-c4ccc(O)cc4O)cc3)n[nH]2)cn1 (stereo not given)

Ki [1]: 0.3 nM | EC50 [2]: 150 nM
Structure (SMILES): Oc1ccc(-c2ccc(-c3cc(Nc4ccc(CN5CCCCC5)nc4)[nH]n3)cc2)c(O)c1

Ki [1]: 0.8 nM | EC50 [2]: 165 nM
Structure (SMILES): Oc1ccc(-c2ccc(-c3cc(Nc4ccc(CNCC5CC5)nc4)[nH]n3)cc2)c(O)c1

inhibition [3]: 18.6% | inhibition [4]: 27.5% | inhibition [5]: 16% | inhibition [6]: 31% | inhibition [7]: 8% | inhibition [8]: 0.7% | inhibition [9]: -2% | inhibition [10]: 7% | inhibition [11]: 14.5% | inhibition [12]: 0% | IC50 [13]: 1720 nM | inhibition [14]: 24% | IC50 (Insulin receptor): > 30000 nM | IC50 [15]: 14400 nM | IC50 [16]: 2550 nM | IC50 [17]: 26900 nM | inhibition [19]: 13.5% | inhibition [20]: 30% | inhibition [21]: 26% | inhibition [22]: 12.7% | IC50 [23]: 1100 nM | IC50 [24]: 2130 nM | IC50 (Aurora kinase A): 10000 nM | IC50 [25]: 290 nM | IC50 [26]: 860 nM | IC50 [27]: 1040 nM | IC50 [28]: 1850 nM | inhibition [29]: 29% | IC50 [30]: 3300 nM | inhibition [31]: 33%
Structure (SMILES): CC(C)NCc1ccc(Nc2cc(-c3ccc(-c4ccc(O)cc4O)cc3)[nH]n2)cc1
IC50 [18]: 1030 nM

Further lines, the compound ahead of its results:

Structure (SMILES): Oc1ccc(-c2ccc(-c3cc(Nc4ccc(CNC5CC5)cc4)n[nH]3)cc2)c(O)c1
Ki [1]: 0.38 nM | EC50 [2]: 60 nM

Structure (SMILES): Oc1ccc(-c2ccc(-c3cc(Nc4ccc(CN5CCCC5)cc4)n[nH]3)cc2)c(O)c1
Ki [1]: 0.18 nM | EC50 [2]: 41 nM

Structure (SMILES): Oc1ccc(-c2ccc(-c3cc(Nc4ccccc4)n[nH]3)cc2)c(O)c1
Ki [1]: 1.2 nM | EC50 [2]: 500 nM

Structure (SMILES): O=C(Nc1ccc(O)cc1)c1ccc2c(-c3nc4ccccc4[nH]3)n[nH]c2c1
Activity [32]: inactive | Activity [33]: Active

Structure (SMILES): Nc1ccn([C@@H]2O[C@H](CO)[C@@H](O)C2(F)F)c(=O)n1
Activity (MDA-MB-231): Active

Structure (SMILES): O=C(Nc1ccc(O)cc1O)c1ccc2c(-c3nc4ccccc4[nH]3)n[nH]c2c1
Ki [1]: 0.5 nM | EC50 [2]: 550 nM

Source: ChEMBL document CHEMBL1137531, “Structure-based design and synthesis of (5-arylamino-2H-pyrazol-3-yl)-biphenyl-2',4'-diols as novel and potent human CHK1 inhibitors” (J Med Chem, 2007)
